Measurements reported in US20200345686A1, “COMPOSITIONS AND METHODS FOR TREATING SKIN AND N[…] DISORDERS” (VCP IP HOLDINGS, LLC, LIMITED LIABILITY COMPANY DELAWARE, priority 2019, published 2020).

Tests used:
[1] = mammals; cited from earlier work
[2] = one study; cited from earlier work
[3] = molecular target: cannabinoid receptor type-2 (CB2) (Homo sapiens, UniProt P34972); settings: cited from earlier work
[4] = mice; cited from earlier work
[5] = Tape-strip test of THC absorbance into pig skin after topical application of salve; assay type: in vitro ADME
Description: A composition as described herein, e.g., in the form of a salve containing 1000 mg THC and carrier components was tested for its absorbance into skin following topical application to the skin of an animal (pig).
The absorbance testing procedure was performed as follows: the salve/lotion composition was applied topically to an area of the skin of a pig. Approximately 500 mg of the salve/lotion composition was applied to the area of skin using a gloved finger. The composition was applied to the skin by rubbing in a circular motion. The applied composition (salve composition) remained on the skin for different time periods, i.e., 10 minutes, 30 minutes, or 60 minutes, to allow the components of the composition, e.g., THC, to absorb into the skin. At the end of each time period, the area of the skin on which the composition had been applied was contacted with adhesive strips to test for the presence of residual cannabinoids, using an adhesive test tape (strip) method, e.g., as known in the art. (See, e.g., A. L. M. Ruela et al., 2016, BJPS, Vol. 52, No. 3:527-544; S. Zsiko et al., 2019, Sci. Pharm. (Review), Vol. 87, No. 19; doi:10.3390/scipharm87030019, 21 pages). In general, the tape-stripping technique is employed for analysis of penetration of an active or component (e.g., THC) into the stratum corneum. The procedure may be applied using an animal skin model, such as pig skin, e.g., a portion of skin removed from the animal. The procedure involved the sequence removal of cell layers of the stratum corneum by application of pieces (strips) of adhesive tape. The residues of the applied composition or formulation were removed from the skin surface, and the adhesive strip was applied by using pressure to ensure its adhesion to the skin. […]
FIG. 1 illustrates the results of the time course experiment following absorption testing 10 minutes after the composition comprising 1000 mg THC+carrier ingredients was applied to the animal's skin. Absorption or permeation of THC (ppm) per layer of skin (20 skin layers deep) was assessed using adhesive test strips. […]

Sequence of cannabinoid receptor type-2 (CB2) (P34972 whole entry, species assumed): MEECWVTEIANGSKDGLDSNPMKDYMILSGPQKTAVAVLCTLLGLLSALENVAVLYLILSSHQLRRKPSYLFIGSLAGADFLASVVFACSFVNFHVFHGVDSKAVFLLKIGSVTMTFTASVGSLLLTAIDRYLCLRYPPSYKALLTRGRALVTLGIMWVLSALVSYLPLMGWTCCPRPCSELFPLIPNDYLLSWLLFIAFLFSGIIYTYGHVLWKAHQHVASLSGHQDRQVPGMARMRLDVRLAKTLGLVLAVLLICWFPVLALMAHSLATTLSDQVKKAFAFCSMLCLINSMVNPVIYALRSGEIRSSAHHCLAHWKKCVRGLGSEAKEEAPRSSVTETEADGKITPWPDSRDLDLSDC

C/C1=C\CC/C(C)=C/CC(C)(C)/C=C/C1 [Humulene]
anti-inflammatory activity [1]: effects similar to those of dexamethasone

C=C(C)[C@@H]1CCC(C)=C[C@H]1c1c(O)cc(CCCCC)cc1O [CBD, (−)-trans-cannabidiol]
relieving pain and reducing inflammation compared with aspirin [2]: more effective than aspirin

C=C1CCC=C(C)CCC2C1CC2(C)C (stereo not shown) [Caryophyllene, 4,11,11-trimethyl-8-methylene-bicyclo[7.2.0]undec-4-ene]
activity at CB2 [3]: selective agonist
anti-inflammatory effects [4]: significant cannabi-mimetic, anti-inflammatory effects

CCCCCc1cc(O)c2c(c1)OC(C)(C)[C@@H]1CCC(C)=C[C@@H]21 [THC, Δ^9-tetrahydrocannabinol]
presence of cannabinoids in the skin layers beneath the stratum corneum ([5]; 5 ppm limit of quantification (LOQ), pig skin tape strips): inability to detect the presence of cannabinoids
location of THC component in skin ([5]; 60 minutes after topical application, salve containing 1000 mg THC + carrier, pig skin): the majority of the THC component had entered the stratum corneum
time after topical application at which absorption or penetration of THC into the skin was highest ([5]; salve containing 1000 mg THC + carrier, approx. 500 mg applied to pig skin, 20 tape strips, HPLC): 10 to 30 min
